# Source: the supplement of paper PMC11208160
# Test: recombinant UMI read abundance after kanamycin selection (control-corrected) (log10(CPM+1)); higher = more efficient recombination; extreme values may be limits of the assay; sequences stand for … in AGTGCAGAGAAAATCGGCCAGTTTTCTCTGCCTGCAGTCCGCATGCCGTGGGACCCCTTGGGTTCTAACCTGTTGCCTAGATTTATGCAGCGGACTGCCTTTCTCCCAAAGTGATAAACCGG…AGGTTGGTTTCACT; site = the 11-nt donor
# Method in brief: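 Under IPTG (0.07 mM) plus kanamycin, or without selection, Escherichia coli carrying a UMI-tagged donor and donor-binding-loop pair library and a target plasmid for the IS621 bridge recombinase were plated in two replicates. Recombinant UMIs were PCR-amplified across the donor–target junction and sequenced. Counts were converted to CPM, averaged over replicates, scaled by control-derived factors and reported as log10(CPM+1).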
# 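Further: IS621 bridge recombinase in Escherichia coli cells against a fixed T5 target plasmid.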
row,Sequence,recombinant UMI read abundance (log10)
1,GCTTACACATGGACCGGTTTTCCCGGTAATCCGTATTTGCG (site GCTTACACTCG),1.72
2,GCTTACCCATGGACCGGTTTTCCCGGTAATCCGTATTTGAT (site GCTTACCCTAT),0.0241
3,GCTTACCCATGGACCGGTTTTCCCGGTAATCCGTATTTGAT (site GCTTCCCCTAT),0
4,GCTTACCCATGGACCGGTTTTCCCGGTAATCCGTATTTGAT (site GCTTGCCCTAT),0.0186
5,GCTTACCCATGGACCGGTTTTCCCGGTAATCCGTATTTGAT (site GCTTTCCCTAT),0
6,GCTTATCCATGGACCGGTTTTCCCGGTAATCCGTATTTGCT (site GATTATCCTAG),0
7,GCTTATCCATGGACCGGTTTTCCCGGTAATCCGTATTTGCT (site GCTTATCCTAG),1.03
8,GCTTATCCATGGACCGGTTTTCCCGGTAATCCGTATTTGCT (site GGTTATCCTAG),0
9,GCTTATCCATGGACCGGTTTTCCCGGTAATCCGTATTTGCT (site GTTTATCCTAG),0
10,GCTTCCGCATGGACCGGTTTTCCCGGTAATCCGTATTTGTT (site GCTTCCGCTAA),1.48
11,GCTTCTACATGGACCGGTTTTCCCGGTAATCCGTATTTGTA (site GCTTCTACTTA),0.541
12,GCTTGACCATGGACCGGTTTTCCCGGTAATCCGTATTTGAT (site GCTTGACCTAT),0.00317
13,GCTTGACCATGGACCGGTTTTCCCGGTAATCCGTATTTGAT (site GCTTGCCCTAT),0.00707
14,GCTTGACCATGGACCGGTTTTCCCGGTAATCCGTATTTGAT (site GCTTGGCCTAT),0.117
15,GCTTGACCATGGACCGGTTTTCCCGGTAATCCGTATTTGAT (site GCTTGTCCTAT),0.00374
16,GCTTGCCCATGGACCGGTTTTCCCGGTAATCCGTATTTGAA (site GCTTGCCCTAT),0
17,GCTTGCCCATGGACCGGTTTTCCCGGTAATCCGTATTTGAA (site GCTTGCCCTCT),0.00774
18,GCTTGCCCATGGACCGGTTTTCCCGGTAATCCGTATTTGAA (site GCTTGCCCTGT),0
19,GCTTGCCCATGGACCGGTTTTCCCGGTAATCCGTATTTGAA (site GCTTGCCCTTT),0.0264
20,GCTTGCCCATGGACCGGTTTTCCCGGTAATCCGTATTTGAC (site GCTTGCCCTAT),0
21,GCTTGCCCATGGACCGGTTTTCCCGGTAATCCGTATTTGAC (site GCTTGCCCTCT),0.0563
22,GCTTGCCCATGGACCGGTTTTCCCGGTAATCCGTATTTGAC (site GCTTGCCCTGT),0
23,GCTTGCCCATGGACCGGTTTTCCCGGTAATCCGTATTTGAC (site GCTTGCCCTTT),0.0621
24,GCTTGGACATGGACCGGTTTTCCCGGTAATCCGTATTTGGA (site GCTTGGACTTC),0.32
25,GGAAATCCATGGACCGGTTTTCCCGGTAATCCGTATTTGGG (site GGAAATCCTCC),0.00368

row,Sequence,recombinant UMI read abundance (log10)
1,GGAACGTCATGGACCGGTTTTCCCGGTAATCCGTATTTGTT (site GGAACGTCTAA),0.993
2,GGAACGTCATGGACCGGTTTTCCCGGTAATCCGTATTTGTT (site GGCACGTCTAA),0.00816
3,GGAACGTCATGGACCGGTTTTCCCGGTAATCCGTATTTGTT (site GGGACGTCTAA),0.28
4,GGAACGTCATGGACCGGTTTTCCCGGTAATCCGTATTTGTT (site GGTACGTCTAA),0.00512
5,GGAACTACATGGACCGGTTTTCCCGGTAATCCGTATTTGCC (site GGAACTACTGG),1.05
6,GGAAGCACATGGACCGGTTTTCCCGGTAATCCGTATTTGGG (site GGAAGCACTCC),0.0218
7,GGAAGTACATGGACCGGTTTTCCCGGTAATCCGTATTTGAC (site GGAAGTACTGT),2.57
8,GGAAGTGCATGGACCGGTTTTCCCGGTAATCCGTATTTGAA (site GGAAGTGCTTT),2.27
9,GGAATCTCATGGACCGGTTTTCCCGGTAATCCGTATTTGAA (site GGAATCTCTTT),2.55
10,GGAATGTCATGGACCGGTTTTCCCGGTAATCCGTATTTGTT (site GGAATGTCTAA),2.44
11,GGAGACGCATGGACCGGTTTTCCCGGTAATCCGTATTTGGT (site GGAGACGCTAC),0.461
12,GGAGCCTCATGGACCGGTTTTCCCGGTAATCCGTATTTGAC (site GGAGCCTCTGT),2.15
13,GGAGCTACATGGACCGGTTTTCCCGGTAATCCGTATTTGAG (site GGAGCTACTCT),0.606
14,GGAGGCGCATGGACCGGTTTTCCCGGTAATCCGTATTTGCC (site GGAGGCGCTGG),3.44
15,GGAGGGGCATGGACCGGTTTTCCCGGTAATCCGTATTTGGT (site GGAGAGGCTAC),0.335
16,GGAGGGGCATGGACCGGTTTTCCCGGTAATCCGTATTTGGT (site GGAGCGGCTAC),0.00457
17,GGAGGGGCATGGACCGGTTTTCCCGGTAATCCGTATTTGGT (site GGAGGGGCTAC),0.699
18,GGAGGGGCATGGACCGGTTTTCCCGGTAATCCGTATTTGGT (site GGAGTGGCTAC),0.0205
19,GGAGTGGCATGGACCGGTTTTCCCGGTAATCCGTATTTGGG (site GGAGTGGCTAC),0.497
20,GGAGTGGCATGGACCGGTTTTCCCGGTAATCCGTATTTGGG (site GGAGTGGCTCC),0.779
21,GGAGTGGCATGGACCGGTTTTCCCGGTAATCCGTATTTGGG (site GGAGTGGCTGC),0
22,GGAGTGGCATGGACCGGTTTTCCCGGTAATCCGTATTTGGG (site GGAGTGGCTTC),0.00897
23,GGAGTTGCATGGACCGGTTTTCCCGGTAATCCGTATTTGGT (site GGAGTAGCTAC),0.089
24,GGAGTTGCATGGACCGGTTTTCCCGGTAATCCGTATTTGGT (site GGAGTCGCTAC),1.05
25,GGAGTTGCATGGACCGGTTTTCCCGGTAATCCGTATTTGGT (site GGAGTGGCTAC),0.00345

row,Sequence,recombinant UMI read abundance (log10)
1,GGAGTTGCATGGACCGGTTTTCCCGGTAATCCGTATTTGGT (site GGAGTTGCTAC),0.861
2,GGATACACATGGACCGGTTTTCCCGGTAATCCGTATTTGGG (site GGATACACTCC),0.348
3,GGATAGACATGGACCGGTTTTCCCGGTAATCCGTATTTGCT (site GGATAGACTAG),2.78
4,GGATAGACATGGACCGGTTTTCCCGGTAATCCGTATTTGCT (site GGATAGACTCG),0.855
5,GGATAGACATGGACCGGTTTTCCCGGTAATCCGTATTTGCT (site GGATAGACTGG),2.33
6,GGATAGACATGGACCGGTTTTCCCGGTAATCCGTATTTGCT (site GGATAGACTTG),1.1
7,GGATAGCCATGGACCGGTTTTCCCGGTAATCCGTATTTGAG (site GGATAGCCTCT),0.00752
8,GGATAGCCATGGACCGGTTTTCCCGGTAATCCGTATTTGCC (site GGATAGACTGG),0
9,GGATAGCCATGGACCGGTTTTCCCGGTAATCCGTATTTGCC (site GGATAGCCTGG),0
10,GGATAGCCATGGACCGGTTTTCCCGGTAATCCGTATTTGCC (site GGATAGGCTGG),0
11,GGATAGCCATGGACCGGTTTTCCCGGTAATCCGTATTTGCC (site GGATAGTCTGG),2.42
12,GGATAGGCATGGACCGGTTTTCCCGGTAATCCGTATTTGCC (site GGATAGACTGG),1.94
13,GGATAGGCATGGACCGGTTTTCCCGGTAATCCGTATTTGCC (site GGATAGCCTGG),0.855
14,GGATAGGCATGGACCGGTTTTCCCGGTAATCCGTATTTGCC (site GGATAGGCTGG),2.44
15,GGATAGGCATGGACCGGTTTTCCCGGTAATCCGTATTTGCC (site GGATAGTCTGG),0.642
16,GGATAGTCATGGACCGGTTTTCCCGGTAATCCGTATTTGCC (site GGATAGACTGG),2.31
17,GGATAGTCATGGACCGGTTTTCCCGGTAATCCGTATTTGCC (site GGATAGCCTGG),0
18,GGATAGTCATGGACCGGTTTTCCCGGTAATCCGTATTTGCC (site GGATAGGCTGG),0
19,GGATAGTCATGGACCGGTTTTCCCGGTAATCCGTATTTGCC (site GGATAGTCTGG),2.79
20,GGATCATCATGGACCGGTTTTCCCGGTAATCCGTATTTGTG (site GGATCATCTCA),0.926
21,GGATCGACATGGACCGGTTTTCCCGGTAATCCGTATTTGCC (site GGATAGACTGG),1.48
22,GGATCGACATGGACCGGTTTTCCCGGTAATCCGTATTTGCC (site GGATCGACTGG),1.28
23,GGATCGACATGGACCGGTTTTCCCGGTAATCCGTATTTGCC (site GGATGGACTGG),0
24,GGATCGACATGGACCGGTTTTCCCGGTAATCCGTATTTGCC (site GGATTGACTGG),0
25,GGATCGCCATGGACCGGTTTTCCCGGTAATCCGTATTTGCG (site GGATCGCCTCG),0.0649
